Test results taken from patent US20230310441A1, “TREATMENT FOR SCHIZOPHRENIA” (TAKEDA PHARMACEUTICAL COMPANY, priority 2020, published 2023).
Where two headings read alike, the source gives them in different places.

Columns and labels:
[1] = Phase 1 FIH study: safety and tolerability (TEAEs) in healthy participants; type: in vivo, human
Experimental: A phase 1 first-in-human (FIH) study was conducted at a single site in the United States to evaluate the safety, tolerability, and pharmacokinetics (PK) of Compound (I). Specifically, Compound (I) was tested to evaluate the safety, tolerability, and PK of single and multiple doses in healthy participants and as add-on therapy to antipsychotics in participants with stable schizophrenia. The phase I study also assessed the oral bioavailability of Compound (I) in healthy participants administered a tablet formulation compared to an oral suspension formulation in a fasted state, as well the effect of a high-fat, high-calorie meal on the PK of a single dose of a tablet formulation of Compound (I). Additional exploratory pharmacodynamic analysis was undertaken in patients with stable schizophrenia to inform future studies.
Cohorts in Parts 1 and 2 were randomized to receive either Compound (I) or placebo in a 6:2 ratio. Cohorts in Part 3 were randomized in a 1:1 ratio, while the cohort in Part 4 was randomized in a 2:1 ratio.
Part 1 was a double-blind, SRD study in healthy adults, utilizing an alternate panel design (cohorts 1, 2) and sequential panel design (cohorts 3-5). Cohorts 1 and 2 were part of a two-period, alternating-panel, double-blind study of Compound (I) administered as an oral suspension (5 mg, 10 mg, 20 mg, or 40 mg) or matched placebo, with a washout period of at least 7 days between treatment periods. Cohorts 3-5 were part of a sequential-panel, double-blind study to evaluate the SRDs of Compound (I) (80, 120, or 160 mg, respectively) or matched placebo. Although planned, all subsequent doses after the dose of 80 mg were determined based on emerging safety, tolerability, and PK data from the preceding cohorts.
In Part 2, participants received either placebo on all dosing days or a loading dose of Compound (I) on Day 1 and a maintenance dose of half the initial dose on Days 8, 15 and 22, administered as an oral suspension. Baseline measurements were obtained on Day −2, and study-specific measurements were obtained following oral dose administrations on Days 1, 8, 15, and 22.
Part 3 was a randomized, open-label, single-dose, parallel design study to evaluate the bioavailability of a Compound (I) tablet formulation relative to a Compound (I) oral suspension formulation and the effect of food on the PK in healthy participants. The immediate release tablet contained mannitol, microcrystalline cellulose, and other commonly used excipients. Participants were randomized 1:1 to receive a single 40 mg dose of Compound (I) as a tablet after either 10 h overnight fast, or 30 min after beginning ingestion of a high-fat, high-calorie breakfast.
Safety measurements used in the phase 1 study included treatment-emergent adverse events (TEAEs), physical examinations, weight, height, BMI, vital signs, clinical laboratory evaluations, pregnancy monitoring, and ECG procedures.
TEAEs were defined as any adverse event that occurred or worsened after receiving the first dose of Compound (I) and within 6 weeks after the last dose of Compound (I). Participants experiencing two or more different TEAEs were counted only once. Frequent TEAEs were defined as adverse events that occurred in at least two participants in any treatment. Participants were evaluated with respect to mood and alertness (BL-VAS) and suicidality (C-SSRS).

[2] = Separate single dose oral study: half-life in dogs; conditions: dog, in vivo; single dose oral administration of 5-15 mg/kg
Excerpt: The mean t1/2z for Compound (I) reflects the prolonged half-life of Compound (I) in humans. […] In that study, the mean human half-life of Compound (I) (approximately 11 days) was substantially higher than the 2-4 hr mean half-life observed in rats and dogs.

[3] = Phase 2 crossover study: plasma pharmacokinetics in schizophrenia subjects; type: in vivo, human; conditions: for AUC(0-inf) / Cmax / Tmax: human, plasma, schizophrenia subjects; for Tmax: read-out: median tmax
Experimental: On Day 1 of each treatment period, following study drug administration, and commencing at approximately 2 h post-dose, subjects underwent PD tests for a total of approximately 4 h. Blood samples were collected at defined times after dosing to assess the PK of Compound (I). After the last PK collection at 6 h post-dose, subjects left the clinic. On Day 14 of each Treatment Period, subjects took the second set of PD tests along with a single time point PK collection. Samples for PK were also collected on Day 49 and at the final visit of the second treatment period. PD testing were performed in 3 blocks, separated by 2 breaks. The first block comprised the Grip Effort Task, the Progressive Ratio Test, and the Brief Assessment of Cognition in Schizophrenia (BACS). The BACS is a reliable and sensitive test battery specifically designed to efficiently assesses important cognitive deficits in patients with schizophrenia; accordingly, the BACS is suited for repeated testing in a clinical trial setting (Keefe et al., 2004). […] The following domains of cognitive function found to be consistently impaired in schizophrenia were assessed in this study: verbal memory; working memory; motor function; attention and processing speed; verbal fluency; and executive function. A composite score was calculated from each of the subset scores and used as a single endpoint for the assessment.
Dosing involved participants drinking a single bottle of oral suspension, containing either Compound (I) (40 or 160 mg Compound (I) mixed with 70 mL Tween/MC vehicle) or placebo (70 mL of Tween/MC vehicle) (Table 11). Participants were instructed to drink the full contents of the bottle, which was then rinsed twice with 35 mL water, which participants also drank. The initial dose level selected was 40 mg, which was adjusted to 160 mg following a planned interim analysis of available PK and safety data from emerging first-in-human cohort data.
The PK set consisted of all subjects who received at least 1 dose of study drug and had at least 1 measurable plasma concentration.
Compound (I) plasma concentrations were tabulated and summarized by descriptive statistics at each scheduled time point (mean, median, SD, percent coefficient of variation, minimum, and maximum) for each treatment and dose level. Individual subject plasma concentration data were listed.
The plasma PK parameters of Compound (I) were determined from the concentration-time profiles for all evaluable subjects. Actual sampling times, rather than scheduled sampling times, were used in all computations involving sampling times. The following PK parameters were calculated using non-compartmental analysis using Phoenix WinNonLin (version 6.3 or higher): area under the plasma concentration-time curve from time 0 to time t, area under the plasma concentration-time curve from time 0 to infinity (AUC∞), maximum observed plasma concentration (Cmax), time of first occurrence of Cmax (tmax), and terminal disposition phase half-life.

[4] = Part 2 MRD, 40/20 mg, N = 6, participants (percent)
[5] = Part 2 MRD, 80/40 mg, N = 6, participants (percent)
[6] = Part 2 MRD, 120/60 mg, N = 6, participants (percent)
[7] = Part 2 MRD, 160/80 mg, N = 6, participants (percent)

C[C@H](NC(=O)Cn1nnc2ccccc2c1=O)c1ccc(OC(F)(F)F)cc1 [Compound (I), (S)-2-(4-oxobenzo[d][1,2,3]triazin-3(4H)-yl)-N-(1-(4-(trifluoromethoxy)phenyl)ethyl)acetamide]
TEAEs related to the study drug (investigator) ([1]; Part 1 (SRD)): None of the TEAEs were considered to be related to the study drug
participants who experienced a TEAE ([1]; Part 1 (SRD), participants who received Compound (I)): 20.0%
Any TEAE [1, 4]: 4 (66.7)
TEAE Mild [1, 4]: 4 (66.7)
TEAE Not related [1, 4]: 4 (66.7)
Any TEAE [1, 5]: 4 (66.7)
TEAE Mild [1, 5]: 4 (66.7)
TEAE Not related [1, 5]: 3 (50.0)
TEAE Related [1, 5]: 1 (16.7)
Any TEAE [1, 6]: 3 (50.0)
TEAE Mild [1, 6]: 2 (33.3)
TEAE Moderate [1, 6]: 1 (16.7)
TEAE Not related [1, 6]: 3 (50.0)
Any TEAE [1, 7]: 5 (83.3)
TEAE Mild [1, 7]: 5 (83.3)
TEAE Not related [1, 7]: 2 (33.3)
TEAE Related [1, 7]: 3 (50.0)
participants who experienced a TEAE ([1]; Part 3, single dose after overnight fast of at least 10 h, tablet): 11.1%
participants who experienced a TEAE ([1]; Part 3, single dose following high-fat, high-calorie breakfast, tablet): 22.2%
discontinuations due to TEAEs ([1]; phase 1 study, all parts): No discontinuations due to TEAEs occurred
deaths, serious adverse events, or other significant TEAEs ([1]; phase 1 study, all parts, 114 randomized participants): No deaths, serious adverse events, or other significant TEAEs were reported
tolerability ([1]; phase 1 study, single and repeated oral doses, healthy volunteers and patients with stable schizophrenia): generally well-tolerated
headache frequency vs placebo ([1]; phase 1 study, frequency appeared to increase with higher doses): more frequently with Compound (I) than with placebo
half-life [2]: 2 to 4 h
increase of mean AUC∞ for a 4-fold increase in dose ([3]; 40 to 160 mg): 3.5 fold
increase of mean Cmax for a 4-fold increase in dose ([3]; 40 to 160 mg): 2.8 fold
AUC(0-inf) ([3]; single oral dose 40 mg): 217 µg·h/mL
Cmax ([3]; single oral dose 40 mg): 549 ng/mL
Tmax ([3]; single oral dose 40 mg): 1.83 h
AUC(0-inf) ([3]; single oral dose 160 mg): 763 µg·h/mL
Cmax ([3]; single oral dose 160 mg): 1520 ng/mL
Tmax ([3]; single oral dose 160 mg): 1.92 h
